Data taken from patent US7803559B1, “Protein aggregation regulators” (The Regents of the University of CA, priority 2003, dated 2010).
Read-outs that look alike come from different tables or passages of the source.

How the values were obtained:
ARN127(65)CFP/YFP [1] = assay: FRET-based assay of polyglutamine (AR) aggregation, limited chemical screen and dose-response; assay type: cell-based, human
Description: For experiments in the fluorescence plate reader, high-throughput screening, and detergent fractionation, HEK293 cells in 6-well plates were transfected with a total of 2 μg of DNA using 10 μL Plus™ and 12 μL Lipofectamine™ according to manufacturer's protocol. To control for autofluorescence and light scattering by mammalian cells, a control group was transfected with 2 μg pcDNA3. To control for bleedthrough and crossover excitation, CFP and YFP controls were transfected with 1 μg pECFP-C1 (Clontech) and 1 μg pcDNA3 (Invitrogen) or 1 μg pEYFP-C1 (Clontech) and 1 μg pcDNA3 respectively. After 5 hours, cells were counted and plated into optically clear 96-well plates (Costar™ 3603) at a density of 60,000 cells/well. […] For assays of rho-GTPase mutants, 1 μg of each was used in conjunction with 1 μg of the polyglutamine expression plasmids. Transfections were performed in triplicate, and each experiment was repeated 6 times. C17-2 neural precursor cells were plated in 12-well plates and transfected using 4 μg of DNA and 4 μl of Lipofectamine 2000™. […] In C17-2 cells polyglutamine protein was visualized by direct fluorescence; neuron-specific tubulin was visualized by immunostaining with mouse monoclonal antibody Neuro TUJ1 (Covance) at 1:1000. […]

AR(122)-C17.2 cells = assay: Cell model of full length AR cytopathology (surviving neurons after 6 days of differentiation); assay type: cell-based, mouse; details: 50 μM
Description: (§1) Immortalized cell lines were created expressing full-length AR that differentiated in vitro into cells that resemble CNS neurons. C17.2 cells were used, developed by Evan Snyder, M. D., Ph.D. which are a transformed mouse neural precursor cell line that retain the ability to engraft and differentiate into CNS neurons and glia when implanted into fetal mouse brain (Snyder et al. 1192 Cell 68:33-51). In their undifferentiated form these cells may be propagated and easily transfected in vitro. However, upon serum starvation, addition of growth factor (NGF 100 ng/ml), and mitomycin (100 ng/ml) they differentiate into cells that have many features of CNS neurons, including axons, dendrites, and expression of neuron-specific markers.
(§2) C17.2 cell lines were created that stably expressed full-length HA-tagged forms of AR (25, 66, 103, or 122 glutamines). These AR(n)-C17.2 cell lines recapitulate several important aspects of SBMA, including proteolytic cleavage, and nuclear inclusion formation (data not shown). […] After six days of differentiation, AR(25)-C17.2 cells cultured with or without DHT readily formed neuron-like cells, expressing neural markers and extending long axonal processes. […]

[2] = Pharmacokinetics in serum and brain of mice (LC-MS); assay type: in vivo, mouse; details: for half-life: mouse
Description: The pharmacokinetics of candidate compounds were assayed in serum and brain of mice. Wild-type C57B6 mice are injected with a single IP dose of a candidate compound, e.g., Y-27632 at 10 mg/kg. Pairs of animals are sacrificed at various time points and serum and brain samples were obtained for LC-MS analysis of drug levels. Plots of serum concentration vs. time and brain concentration vs. time are used to analyze, e.g., penetration of the blood/brain barrier, drug kinetics, and t1/2.
Wild-type C57B6 mice were treated with a single 10 mg/kg dose of Y-27632 by IP injection. Pairs of animals were sacrificed at various time points and serum and brain samples were obtained for LC-MS analysis of Y-27632 levels. […] The initial rapid fall in serum concentration is likely due to tissue re-distribution. […] Values represent the average from two mice; error bars represent the range.

full-length AR = assay: Western blot of full-length AR levels in stable C17.2 neural cell lines; assay type: cell-based; details: 50 μM, with or without 100 nM DHT, FIG. 6A
Description: as §1, §2

[3] = test system: Transgenic flies harboring htt exon 1 (Q93); assay: Drosophila model of htt exon 1 neurodegeneration (rhabdomeres per ommatidium); assay type: in vivo; details: 25 μM in food, seven days post-eclosion, p<0.0003 by ANOVA
Description: Transgenic flies were used, harboring a human huntingtin exon 1 fragment with 93 glutamines (htt exon 1 (Q93)) that is expressed in all fly neurons under the control of the elav:Gal4 driver.
Flies were treated by maintaining adults on food containing candidate compound (e.g., 25 μM Y-27632) or no drug supplement. The number of rhabdomeres in treated vs. untreated flies were analyzed seven days post-eclosion by the pseudopupil technique as described (Steffan et al., (2001). Nature 413, 739-743). Approximately 50-60 ommatidia were analyzed for rhabdomere content on each of 10-12 flies from each treatment group, and the average number of rhabdomeres per ommatidium in each individual was determined. Percent rhabdomere loss was calculated as 100×((7−average number remaining)/7) before and after treatment.
The therapeutic effect of Y-27632 in a Drosophila model of polyglutamine neurodegenerative disease was tested. Following eclosion, adult flies expressing the transgene were grown for seven days in the presence or absence of 25 μM Y-27632 in their food and rhabdomeres were counted at seven days. […] Thus, in addition to reducing polyglutamine aggregation in mammalian cells, Y-27632 is neuroprotective in this Drosophila model of polyglutamine protein toxicity.

htt(72)CFP/YFP = target: T1, htt(72)CFP/YFP (Homo sapiens, UniProt P42858, INS38QQQQQQQQQQQQQQQQQQQQQQQQQQQQQQQQQQQQQQQQQQQQQQQQQQQ); assay: FRET based assay of htt aggregation; assay type: cell-based
T1 construct: htt exon 1 fragment derived from plasmid qp72; expressed in transfected cells; host or cells: HEK293
Description: Aggregation of htt was monitored using the FPR FRET based HTS described herein for assaying aggregation of AR, using plasmids with htt exon 1-CFP and -YFP fusions containing 72 repeats (htt(72)CFP/YFP). HEK293 cells were transfected with htt(72)CFP/YFP as above, and cells were plated into a 96-well dish in the presence or absence of various concentrations of test compounds. After 24 hours, cells were fixed in 4% paraformaldehyde, and FRET signal was determined from the cell monolayers by reading on the FPR.

ARN127(65)CFP/YFP [4] = assay: Secondary screen using the AR FRET assay; assay type: cell-based, human; details: secondary screen, AR FRET assay, Table 3
Description: Selected candidate compounds and/or libraries of compounds were screened as follows. Daughter plates were created in duplicate from the 384-well microtiter plates that contained the compounds at a concentration of 80 μg/ml. […] To screen a library, HEK293 cells stably expressing RFP were plated in 10 cm plates to obtain ˜80% confluency on the day of transfection. Each plate was transfected with 2 μg of ARN127(65)CFP/YFP each, and 0.7 μg p6RGRΔ using 50 μL Plus Reagent™ and 76 μL Lipofectamine™ according to manufacturer's protocol (Invitrogen). After 3 hours, complete medium was added and the plates were incubated further for 3 hours. […] The cells were then cultured for ˜48 hours to allow aggregate formation. After fixing the cells FRET signal was measured using a SAFIRE Fluorescence Plate Reader (Tecan, Inc.) according to methods described above. Several internal controls were used to standardize each experiment. Mock transfected cells were used to control for background autofluorescence and light scattering by mammalian cells. To control for CFP bleedthrough and crossover excitation of YFP, additional wells contained cells expressing ARN127(25)CFP or ARN127(25)YFP alone. RFP was measured to control for non-specific effects on steady-state protein levels. ARN127(25)CFP/YFP expression served as a reference point for background FRET levels without aggregation (a theoretical maximum effect on aggregation inhibition). FRET measurements for each experiment were thus scaled between 100% (cells with no drug treatment) and 0% (FRET levels from unexpanded protein).
Selected candidate compounds from the primary screen of all three libraries were assayed again in a secondary screen using the AR FRET assay.
Finally, the role of F-actin in preventing polyglutamine aggregation was investigated by treating cells with two agents that prevent actin depolymerization: phalloidin and jasplakinolide.

[5] = C57B6 mice, single 10 mg/kg dose IP

T1 sequence (P42858 with tags, fused parts or gaps, stated change not applied): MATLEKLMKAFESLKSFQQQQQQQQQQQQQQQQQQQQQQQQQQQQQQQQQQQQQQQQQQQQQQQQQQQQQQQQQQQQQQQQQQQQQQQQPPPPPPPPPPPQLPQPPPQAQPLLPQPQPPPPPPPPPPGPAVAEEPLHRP

Structure (SMILES) | decrease of FRET (polyglutamine protein aggregation) (ARN127(65)CFP/YFP [1]; HEK293, ARN127(65)CFP/YFP and GRΔ, 100 nM dex, 48 hours) [%] | EC50 (ARN127(65)CFP/YFP [1]; dose-response analysis, FRET, FIG. 3B, read-out: EC50 for the effect on polyglutamine aggregation) [µM] | increase in number of surviving AR(122)-C17.2 neurons (AR(122)-C17.2 cells) [%] | effect on AR(25)-C17.2 cells (AR(122)-C17.2 cells; data not shown) | serum:brain ratio ([2]; C57B6, mouse, in vivo, ip, 10 mg/kg) | bioavailability [2, 5] | brain concentration, peak [2, 5] | serum concentration, spike [2, 5] | half-life ([2]; serum and brain, C57B6 mice, single 10 mg/kg dose IP, read-out: t1/2 of clearance from serum and brain (first-order kinetics)) [h] | half-life ([2]; serum, C57B6 mice, single 10 mg/kg dose IP, read-out: t1/2 of clearance from serum) [h] | AR steady-state levels (full-length AR) | rhabdomere loss prevented [3] [%] | aggregation of htt exon 1-CFP and -YFP fusions containing 72 repeats (htt(72)CFP/YFP; FIG. 3A) | Max % Inhibition (ARN127(65)CFP/YFP [4]) [%] | Max % Inh. in Htt (htt(72)CFP/YFP; HEK293, htt(72)CFP/YFP, 24 hours) [%]
C[C@@H](N)C1CCC(C(=O)Nc2ccncc2)CC1 (stereo partly drawn) [Compound Y-27632] | 40 | ~5 | 100 | without affecting AR(25)-C17.2 cells | approximately 6:1 | excellent bioavailability | ≈ 500 nM | approximately 3.5 μM | ~1 | ~1 | reduced the AR steady-state levels | 29 | inhibited aggregation |  | 
Oc1cc(O)cc(/C=C/c2ccc(O)c(O)c2)c1 [Piceatannol, 3,3′4,5′-Tetrahydroxy-Trans-stilbene] |  |  |  |  |  |  |  |  |  |  |  |  |  | 23 | 28
